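Growth conditions: 96-well plates. Treatment: test compound, 48 hours, 5 concentrations. Analysis: linear interpolation between bracketing concentrations; unreached endpoints set to highest concentration. Here, GI50 denotes the concentration required for 50% inhibition of growth.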 Active and inactive are the calls of the source. Cut-off read from the data, not from the text of the source: active = GI50 up to about 1.1 µM and inactive = higher.
Experiments:
Test in all cases: NCI tumour cell line growth inhibition, 48 h
SF-295 = test system: SF-295
CAKI-1 = test system: CAKI-1
ACHN = test system: ACHN
UACC-62 = test system: UACC-62
U-251 = test system: U-251
IGROV-1 = test system: IGROV-1
HCC 2998 = test system: HCC 2998
SNB-19 = test system: SNB-19
MDA-MB-231 = test system: MDA-MB-231
OVCAR-3 = test system: OVCAR-3
NCI-H522 = test system: NCI-H522
MDA-MB-435 = test system: MDA-MB-435
OVCAR-4 = test system: OVCAR-4
SK-OV-3 = test system: SK-OV-3
NCI-H23 = test system: NCI-H23
NCI/ADR-RES = test system: NCI/ADR-RES
DU-145 = test system: DU-145
A498 = test system: A498
HOP-92 = test system: HOP-92

SMILES | GI50 (SF-295) | GI50 (CAKI-1) | GI50 (ACHN) | GI50 (UACC-62) | GI50 (U-251) | GI50 (IGROV-1) | GI50 (HCC 2998) | GI50 (SNB-19) | GI50 (MDA-MB-231) | GI50 (OVCAR-3) | GI50 (NCI-H522) | GI50 (MDA-MB-435) | GI50 (OVCAR-4) | GI50 (SK-OV-3) | GI50 (NCI-H23) | GI50 (NCI/ADR-RES) | GI50 (DU-145) | GI50 (A498) | GI50 (HOP-92)
Nc1nnnn1NC(=O)NCCCl | > 10 µM (inactive) | > 10 µM (inactive) | > 10 µM (inactive) | > 10 µM (inactive) | > 10 µM (inactive) | > 10 µM (inactive) | > 10 µM (inactive) | > 10 µM (inactive) | > 10 µM (inactive) | > 10 µM (inactive) | > 10 µM (inactive) | > 10 µM (inactive) | > 10 µM (inactive) | > 10 µM (inactive) | > 10 µM (inactive) | > 10 µM (inactive) | > 10 µM (inactive) | > 10 µM (inactive) | > 10 µM (inactive)
CC1(C)[C@@H]2C[C@H]1[C@@H](Cc1cccc(C[C@H]3c4cc(-c5ccccn5)ncc4[C@H]4C[C@@H]3C4(C)C)c1)c1cc(-c3ccccn3)ncc12 | 0.69 µM (active) | 1.75 µM (inactive) | 1.37 µM (inactive) | 2.92 µM (inactive) | 2.92 µM (inactive) | 3.49 µM (inactive) | 12.4 µM (inactive) | 3.46 µM (inactive) | > 31.8 µM (inactive) | > 30.5 µM (inactive) | 8.93 µM (inactive) | 2.96 µM (inactive) | > 100 µM (inactive) | > 100 µM (inactive) | 4.9 µM (inactive) | 3.78 µM (inactive) | 1.09 µM (active) | > 44.4 µM (inactive) | 9.04 µM (inactive)
Cc1cccc(C)c1NC(=S)NC=C(C(N)=O)C(N)=O | > 100 µM (inactive) | > 100 µM (inactive) | > 100 µM (inactive) | > 100 µM (inactive) | > 100 µM (inactive) | > 100 µM (inactive) | > 100 µM (inactive) | > 100 µM (inactive) | > 100 µM (inactive) | > 100 µM (inactive) | > 100 µM (inactive) | > 100 µM (inactive) | > 100 µM (inactive) | > 100 µM (inactive) | > 100 µM (inactive) | > 100 µM (inactive) | > 100 µM (inactive) | > 100 µM (inactive) | > 100 µM (inactive)
C#CCNC(CCCNC(=N)N)C(=O)O (configuration not stated) | > 100 µM (inactive) | > 100 µM (inactive) | > 100 µM (inactive) | > 100 µM (inactive) | > 100 µM (inactive) | > 100 µM (inactive) | > 100 µM (inactive) | > 100 µM (inactive) | > 100 µM (inactive) | > 100 µM (inactive) | > 100 µM (inactive) | > 100 µM (inactive) | > 100 µM (inactive) | > 100 µM (inactive) | > 100 µM (inactive) | > 100 µM (inactive) | > 100 µM (inactive) | > 100 µM (inactive) | > 100 µM (inactive)
CCOP(=O)(CC1CC(O)(CNc2cc(Cl)nc(N)n2)C1)OCC (configuration not stated) | > 100 µM (inactive) | > 100 µM (inactive) | > 100 µM (inactive) | > 100 µM (inactive) | > 100 µM (inactive) | > 100 µM (inactive) | > 100 µM (inactive) | – | > 100 µM (inactive) | > 100 µM (inactive) | > 100 µM (inactive) | > 100 µM (inactive) | > 100 µM (inactive) | > 100 µM (inactive) | > 100 µM (inactive) | > 100 µM (inactive) | > 100 µM (inactive) | > 100 µM (inactive) | > 100 µM (inactive)
COC(=O)CCC(NC(=O)OC(C)(C)C)C(=O)NC(Cc1ccc(NC(=O)CCCC(C)=O)cc1)C(=O)NC(CCC(=O)OC)C(=O)OC (configuration not stated) | > 100 µM (inactive) | > 100 µM (inactive) | > 100 µM (inactive) | > 100 µM (inactive) | – | > 100 µM (inactive) | > 100 µM (inactive) | > 100 µM (inactive) | > 100 µM (inactive) | > 100 µM (inactive) | > 100 µM (inactive) | > 100 µM (inactive) | > 100 µM (inactive) | > 100 µM (inactive) | > 100 µM (inactive) | > 100 µM (inactive) | > 100 µM (inactive) | > 100 µM (inactive) | > 100 µM (inactive)
